Test results: ChEMBL document CHEMBL5729666, “Substituted [1,2,4]triazolo[4,3-a]pyrazines as modulators of sodium channel activity” (2023)

Molecular target: T1, Cytochrome P450 1A2 (Homo sapiens, UniProt P05177)
T1 sequence (P05177 whole entry): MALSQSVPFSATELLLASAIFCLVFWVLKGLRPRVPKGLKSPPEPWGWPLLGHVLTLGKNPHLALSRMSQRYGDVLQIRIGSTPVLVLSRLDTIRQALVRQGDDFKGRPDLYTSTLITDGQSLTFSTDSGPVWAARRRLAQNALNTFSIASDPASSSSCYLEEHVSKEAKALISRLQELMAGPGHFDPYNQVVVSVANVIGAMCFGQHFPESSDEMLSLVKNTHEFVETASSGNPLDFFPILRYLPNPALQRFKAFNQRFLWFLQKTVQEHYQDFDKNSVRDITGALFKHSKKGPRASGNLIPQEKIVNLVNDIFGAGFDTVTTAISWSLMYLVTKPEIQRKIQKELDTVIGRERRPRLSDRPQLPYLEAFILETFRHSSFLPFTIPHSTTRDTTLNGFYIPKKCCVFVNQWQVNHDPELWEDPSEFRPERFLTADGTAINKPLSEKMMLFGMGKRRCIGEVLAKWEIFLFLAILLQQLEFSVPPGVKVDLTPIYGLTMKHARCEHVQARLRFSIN
Test: CYP1A2 Inhibition Assay: CYP1A2 Inhibition in Human Liver Microsomes. Pooled human liver microsomes were incubated with individual CYP, CYP1A2, isozyme-specific marker substrate (Phenacetin) in the presence of test compound at various concentrations (0.05, 0.15, 0.5, 1.5, 5, 15, 50 uM). The specific marker metabolites are measured with LC/MS/MS. The remaining enzymatic activities and inhibitory potency IC50 are determined. Procedure: Microsomes are removed out of the −80° C. freezer to thaw on ice and 20 μL of the substrates solution added to the corresponding wells. Then 20 μL PB was added to blank wells and 2 μL of the test compounds and positive control working solution added to the corresponding wells. 2 μL of solvent was added to No Inhibitor wells and Blank wells. Then 158 μL of the HLM working solution was added to all wells of the incubation plate. The plate was pre-warmed for about 10 min using a 37° C. water bath. Then 20 μL of the NADPH cofactor solution was added to all incubation wells, mixed and incubated for 10 minutes at 37° C. water bath. The reaction is terminated by adding 400 μL cold stop solution (200 ng/mL Tolbutamide and 200 ng/mL Labetalol in ACN). The samples were centrifuged at 4000 rpm for 20 minutes to precipitate protein. Finally 200 μL of the supernatant was transferred to 100 μL HPLC water, shaken for 10 min and analyzed by LC/MS/MS.

SMILES	IC50
FC(F)(F)Oc1ccc(-c2ccc3nnc(C(F)(F)Cl)n3n2)cc1	< 1 µM
O=C(NNc1cnc(-c2ccc(OC(F)(F)F)cc2)cn1)C1(F)CC1	in the range around 8 µM
